The source of these data is patent US20040209273A1, “Plant stress-regulated genes” (priority 2001, published 2004).

SMILES strings stand for the structures.

Data set [1] has as its system A. thaliana plants. As to the kind of experiment: Growth of Arabidopsis seedlings on plates containing methyl viologen. The data set is classed as in vivo, Arabidopsis thaliana. The following applies: 2 μM MV in ½ MS, 1% sucrose; three to four weeks; transformed lines and C24 control. As to the method: Eighty plants of an F2-progeny of the transgenic line WV4 (construct pWRKY-VP16-pGSJ780A) were grown on MS+Kanamycine for two and a half weeks. Fifteen kanamycine-resistant seedlings were transferred to plates containing ½ MS, 1% sucrose and 2 μM methyl viologen (paraquat) or to plates containing ½ MS, 1% sucrose for the controls.
Wild-type Arabidopsis plants were treated in a similar way (except for selection on Kanamycine).
Performance of plants was followed and pictures were taken after approximately three weeks.
Segregating populations (F2) of A. thaliana plants (C 24) transformed with WRKY11 under control of the 35S promoter (35S—WRKY11) or with WRKY11 fused to the VP16 activation domain under control of the 35S promoter (35S—WRKY11-VP16) were grown on MS media with kanamycine. Approximately three-week-old seedlings resistant to kanamycine from 3:1 segregating lines (WV4 and WV9 WRKY11-VP16 transformed lines) were transferred to the solid media containing ½ MS salts, 1% sucrose and 2 μM methyl viologen (MV) or on plates without MV. As control plants, untransformed A. thaliana plants were used (C24). After three to four weeks, phenotypic differences were assessed.

Data set [2] relates to tobacco leaf discs. The experiment in a line: Ion leakage (solute conductance) from tobacco leaf discs floated on methyl viologen solutions. On the set-up: species or system Nicotiana tabacum. As to the method: Nicotiana tabacum cv. Petit Havana SR1 plants were grown in a controlled environment chamber (Weiss Technik, Lindenstruth, DE) under 100 μmol/m^2/s light intensity (photosynthetically active radiation), 16 hours light/8 hours dark regime, relative humidity of 70% and constant temperature of 24° C. The most expanded leaves (11-12 cm long×7-8 cm wide) from five week old plants were used for experiments with methyl viologen.
Leaf discs (1 cm in diameter) were punched with a cork-bore from the interveinal part of the leaf. Three leaf discs, each originating from different plants, were floated with the abaxial side up on 12 ml of methyl viologen solution in nanopure water or water solely in the case of control. Treatments were performed in controlled environment chambers, under the same conditions as for growth, except as otherwise indicated. Leaf discs for RNA extraction were drained on paper, rapidly frozen in liquid nitrogen and stored at −70° C. Ion leakage from the leaf discs was measured as conductivity of the solution using a conductivity meter (Consort, Turnhout, BE)
As a first step in studying adaptive responses to oxidative stress in tobacco, we wanted to establish an experimental system in which low doses of oxidant would induce adaptation to higher doses of the same compound. MV, a redox-active compound that enhances superoxide radical (O2 ? ) formation mainly in chloroplasts, was used as an oxidant. In order to determine MV concentrations suited for the induction of adaptation and for the subsequent oxidative stress treatment, sensitivity of tobacco to MV was first determined. Leaf discs were floated on solutions with different concentrations of MV and ion leakage was monitored by measuring the solute conductance. If not scavenged, superoxide generated by MV is converted through redox-reactions into other active oxygen species (AOS) such as hydroxyl radicals that interact with biological molecules and cause oxidative damage (Halliwell and Gutteridge, 1989). Peroxidation of membrane lipids results in loss of membrane integrity that is reflected by enhanced cellular ion leakage. […] These concentrations thus seemed most suitable for inducing adaptation to MV.
To test whether exposure to sublethal amounts of MV enhances tolerance to higher, normally toxic amounts of this compound, tobacco leaf discs were floated on solutions with less than 0.2 μM MV and subsequently transferred to solutions within the molar range of 0.2-2 μM. Increase in tolerance was assessed by measuring the solute conductance. Leaf discs pretreated with water were taken as nonadapted controls. […]

The test system of data set [3] is Gpx, SodCc and differential-display genes (mRNA). As to the kind of experiment: Northern analysis of gene expression in leaf discs during MV pretreatment and treatment. On the set-up: species or system Nicotiana tabacum. As to the method: Total RNA was extracted from frozen leaf discs using TRIzol™ Reagent (Life Technologies, Paisley, UK) according to the manufacturer's instructions. RNA samples were treated prior to electrophoresis and resolved on 1% agarose gel as described by Shaul et al. (1996). The RNA was blotted on nylon membrane (Hybond-N, Amersham International plc., Buckinghamshire, UK or Qiabrane, Qiagen GmbH, Hilden, DE) by capillary blotting (Maniatis et al., 1982). RNA was fixed to the membrane by cross-linking at 150 mJ/cm^2. To check the quality of RNA prior to hybridization, membranes were incubated for 15 minutes in 5% acetic acid and stained for five minutes in 0.04% methylene blue in 0.5 M sodium acetate (pH 5.2), and rinsed with water. After the staining and quality check, membranes were destained in 0.1×SSC (Maniatis et al., 1982) containing 0.5% SDS (w/v). Membranes were hybridized at 65° C. in 50% formamide, 5×SSC, 0.5% SDS and 10% dextran sulphate. ^32P-labeled RNA probes corresponding to the cDNA fragments of GPx (Criqui et al., 1992), SodCc (PSOD 3-5′ fragment; Tsang et al., 1991), SodB (pSOD 2-5′ fragment; Tsang et al., 1991), Cat1 (pCat1A; Willekens et al., 1994), and N. tabacum actin (pRVA12; Aventis Crop Science, BE) were generated by the Riboprobe® System (Promega Corp., Madison, Wis., USA). RNA probes corresponding to cDNA fragments isolated by differential display and cloned into pGEM®-T vector (Promega Corp., Madison, Wis., USA) were generated according to the same protocol. Membranes were washed at 65° C. for 15 minutes each in 3×SSC (Maniatis et al., 1982), 1×SSC and 0.1×SSC (stringent washing) containing 0.5% SDS (w/v). Membranes were exposed to the Storage Phosphor Screen and scanned with the Phosphorlmager 445 SI (Molecular Dynamics Inc., Sunnyvale, Calif., USA). Membranes were reused after stripping of the probe in 0.1×SSC at 85° C. Removal of the probe was checked by autoradiography.
mRNA levels of several antioxidant genes were tested by Northern analysis during the pretreatment and the treatment. […]

The test system of data set [4] is tobacco leaf disc mRNA. The experiment in a line: Differential mRNA display of MV-pretreated versus water-pretreated leaf discs. On the set-up: species or system Nicotiana tabacum. Conditions: 0.1 μM MV for 17 hours; estimated from sequencing data. As to the method:
Total RNA was treated with DNaseI prior to RT-PCR according to the manufacturer's instructions (Life Technologies, Paisley, UK). Alternatively, up to 20 μg of total RNA was incubated with 5 U DNaseI, 18 U Recombinant Ribonuclease Inhibitor (Promega Corp., Madison, Wis., USA), 1 mM DTT in 80 μl of 10 mM Tris-Cl, pH 8.3, 50 mMKCl and 1.5 mM MgCl2 for 30 minutes at 37° C. RNA was extracted with phenol/CHCl3 (3:1), ethanol precipitated and dissolved in diethyl pyrocarbonate-treated water. mRNA differential display was performed with the RNA map™ kit (Gene Hunter Corp., Nashville, Tenn., USA), AmliTaq DNA polymerase (Perkin-Elmer, Branchburg, N.J., USA) and [^33P] dATP (0.2 μl/20 μl PCR reaction of 111 000 GBq/mmol; Isotopchim, Ganagobie-Peyruis, FR). 3.5 μl of each PCR reaction was mixed with 2 μl of loading dye and denatured at 95° C. for five minutes prior to loading onto 6% DNA sequencing gel. […]
In order to identify which genes other than those encoding antioxidant enzymes would show altered mRNA levels during oxidative stress adaptation, reference samples placed in water for 17 hours, or samples pretreated with 0.1 μM MV for 17 hours (adapted leaf discs), were compared by differential mRNA display. […] Expression of 16 genes was further analyzed by Northern analysis with RNA from an independent experiment. […]

Turning to `C[n+]1ccc(-c2cc[n+](C)cc2)cc1` [MV, methyl viologen], the “growth of plants on plates containing MV” value in data set [1] is listed as “retarded”. The “leaf damage measured as solute conductance versus applied dose” value in data set [2] (0.2-2 μM MV) is listed as “clearly correlated with the applied dose of MV”. For the same compound, in data set [2] (concentrations lower than 0.2 μM MV, after 42 hours of incubation), the “visible damage of leaf discs” value is “no visible damage”. Moreover, the “increase in ion leakage from the leaf discs in comparison with water-treated controls” value in data set [2] (concentrations lower than 0.2 μM MV, up to 42 hours of incubation) is reported as “very little increase in ion leakage”. Also, in data set [2] (pretreated with 0.1 μM MV for 17 hours, then treated with 1 μM MV for 11 hours, mean), the “protection against MV compared to water-pretreated control samples (solute conductance)” value turned out to be 40%. Moreover, the “expression of all Table 2 genes except DIOX” value was “induced” in data set [3] (after 12 hours of the pretreatment with 0.1 μM MV) and “further induced” in data set [3] (during the treatment with 1 μM MV, induction started within the first three hours). Also, the “Gpx and SodCc mRNA level” value in data set [3] (pretreatment with 0.1 μM MV) is on record as “persistent increase”. Besides, the “total number of genes with altered expression after MV pretreatment” value in data set [4] was about 170.
